Experimental data: PubChem BioAssay (NCI)
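Tested at 5 concentrations; 48 h exposure; 96-well plates; endpoints linearly interpolated, else capped at highest concentration. Abbreviation: GI50, concentration required for 50% inhibition of growth. The concentration for full growth arrest is given as TGI.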

Columns and labels:
Assay in all cases: growth of human tumour cells (NCI), 48 h
[1] = test system: A549 NSCLC
[2] = test system: M14 melanoma
[3] = test system: HCT-116 colon
[4] = test system: NCI-H23 lung
[5] = test system: OVCAR-4 ovarian
[6] = test system: U251 CNS
[7] = test system: HL-60(TB) leukemia
[8] = test system: HOP-92 NSCLC
[9] = test system: MOLT-4 leukemia
[10] = test system: HOP-62 NSCLC
[11] = test system: KM12 colon
[12] = test system: SK-OV-3 ovarian
[13] = test system: PC-3 prostate
[14] = test system: DU-145 prostate
[15] = test system: 786-0 renal
[16] = test system: NCI-H226 lung
[17] = test system: HCT-15 colon
[18] = test system: K-562 leukemia
[19] = test system: SNB-19 CNS
[20] = test system: COLO 205 colon
[21] = test system: NCI-H522 lung
[22] = test system: OVCAR-5 ovarian
[23] = test system: SF-268 CNS
[24] = test system: MALME-3M melanoma
[25] = test system: HT29 colon
[26] = test system: T-47D breast
[27] = test system: SK-MEL-2 melanoma
[28] = test system: UO-31 renal
[29] = test system: SF-539 CNS
[30] = test system: EKVX NSCLC
[31] = test system: UACC-257 melanoma
[32] = test system: SR leukemia
[33] = test system: MDA-MB-435
[34] = test system: TK-10 renal
[35] = test system: OVCAR-3 ovarian
[36] = test system: RPMI-8226 leukemia
[37] = test system: MDA-MB-468 breast
[38] = test system: OVCAR-8 ovarian
[39] = test system: MDA-MB-231 breast
[40] = test system: HS 578T breast
[41] = test system: IGROV1 ovarian
[42] = test system: BT-549 breast
[43] = test system: A498 renal
[44] = test system: SNB-75 CNS
[45] = test system: CCRF-CEM leukemia
[46] = test system: RXF 393 renal
[47] = test system: ACHN renal
[48] = test system: SN12C renal
[49] = test system: CAKI-1 renal
[50] = test system: SK-MEL-28 melanoma
[51] = test system: LOX IMVI melanoma
[52] = test system: UACC-62 melanoma
[53] = test system: HCC-2998 colon
[54] = test system: SW-620 colon
[55] = test system: SF-295 CNS
[56] = test system: SK-MEL-5 melanoma
[57] = test system: MCF7 breast
[58] = test system: NCI-H460 lung
[59] = test system: NCI/ADR-RES ovarian

O=C(c1ccc(O)cc1)C1[C@H](c2ccc(Br)cc2)[C@@H](c2ccccc2)NC12C(=O)Nc1ccccc12 (stereo partly specified)
GI50 [1]: 4.84 µM | TGI [1]: 10.2 µM | GI50 [2]: 5.63 µM | TGI [2]: 11.3 µM | GI50 [3]: 5.51 µM | TGI [3]: 10.8 µM | GI50 [4]: 6.38 µM | TGI [4]: 12.6 µM | GI50 [5]: 6.21 µM | TGI [5]: 12.9 µM | GI50 [6]: 6.19 µM | TGI [6]: 11.6 µM | GI50 [7]: 7.46 µM | TGI [7]: 18.9 µM | GI50 [8]: 5.36 µM | TGI [8]: 10.9 µM | GI50 [9]: 3.99 µM | TGI [9]: 13.4 µM | GI50 [10]: 5.88 µM | TGI [10]: 11.5 µM | GI50 [11]: 6.31 µM | TGI [11]: 12.6 µM | GI50 [12]: 6.67 µM | TGI [12]: 13.3 µM | GI50 [13]: 5.09 µM | TGI [13]: 12.3 µM | GI50 [14]: 6.85 µM | TGI [14]: 12.9 µM | GI50 [15]: 5.83 µM | TGI [15]: 11.2 µM | GI50 [16]: 5.31 µM | TGI [16]: 11 µM | GI50 [17]: 6.17 µM | TGI [17]: 13 µM | GI50 [18]: 8.24 µM | TGI [18]: 21.8 µM | GI50 [19]: 5.92 µM | TGI [19]: 11.1 µM | GI50 [20]: 6.88 µM | TGI [20]: 14.1 µM | GI50 [21]: 5.82 µM | TGI [21]: 11.7 µM | GI50 [22]: 5.67 µM | TGI [22]: 10.8 µM | GI50 [23]: 5.73 µM | TGI [23]: 12.5 µM | GI50 [24]: 5.75 µM | TGI [24]: 10.9 µM | GI50 [25]: 5.87 µM | TGI [25]: 12 µM | GI50 [26]: 5.14 µM | TGI [26]: 12.2 µM | GI50 [27]: 6.14 µM | TGI [27]: 11.5 µM | GI50 [28]: 3.99 µM | TGI [28]: 8.53 µM | GI50 [29]: 6.41 µM | TGI [29]: 11.7 µM | GI50 [30]: 5.92 µM | TGI [30]: 14 µM | GI50 [31]: 6.1 µM | TGI [31]: 11.8 µM | GI50 [32]: 5.18 µM | TGI [32]: 12.6 µM | GI50 [33]: 6.53 µM | TGI [33]: 12.3 µM | GI50 [34]: 5.68 µM | TGI [34]: 11.3 µM | GI50 [35]: 6.51 µM | TGI [35]: 12 µM | GI50 [36]: 7.97 µM | TGI [36]: 25.2 µM | GI50 [37]: 6.1 µM | TGI [37]: 12.2 µM | GI50 [38]: 6.28 µM | TGI [38]: 12.2 µM | GI50 [39]: 4.93 µM | TGI [39]: 9.87 µM | GI50 [40]: 6.63 µM | TGI [40]: 15.9 µM | GI50 [41]: 5.21 µM | TGI [41]: 10.4 µM | GI50 [42]: 6.02 µM | TGI [42]: 11.4 µM | GI50 [43]: 5.83 µM | TGI [43]: 11.3 µM | GI50 [44]: 4.21 µM | TGI [44]: 11.7 µM | GI50 [45]: 7.07 µM | TGI [45]: 16.1 µM | GI50 [46]: 5.29 µM | TGI [46]: 10.5 µM | GI50 [47]: 5.69 µM | TGI [47]: 10.8 µM | GI50 [48]: 5.69 µM | TGI [48]: 10.8 µM | GI50 [49]: 4.67 µM | TGI [49]: 9.8 µM | GI50 [50]: 6.21 µM | TGI [50]: 11.5 µM | GI50 [51]: 4.93 µM | TGI [51]: 10.6 µM | GI50 [52]: 5.13 µM | TGI [52]: 10.1 µM | GI50 [53]: 5.87 µM | TGI [53]: 11.4 µM | GI50 [54]: 6.63 µM | TGI [54]: 12.9 µM | GI50 [55]: 5.93 µM | TGI [55]: 11.3 µM | GI50 [56]: 6.6 µM | TGI [56]: 12.1 µM | GI50 [57]: 6.41 µM | TGI [57]: 15.4 µM | GI50 [58]: 6.08 µM | TGI [58]: 11.9 µM

COc1cncc(-c2ccc3ncnc(N4CCc5ccc(Cl)cc54)c3c2)c1
GI50 [1]: 1.85 µM | TGI [1]: 18.4 µM | GI50 [2]: 7.6 µM | TGI [2]: 37.4 µM | GI50 [3]: 2.97 µM | TGI [3]: 77.7 µM | GI50 [4]: 5.33 µM | TGI [4]: 29.6 µM | GI50 [5]: 2.69 µM | TGI [5]: 22.9 µM | GI50 [6]: 4.24 µM | TGI [6]: 24 µM | TGI [7]: 6.2 µM | GI50 [8]: 2.24 µM | TGI [8]: 17.8 µM | GI50 [9]: 1.96 µM | TGI [9]: 6.96 µM | GI50 [10]: 2.19 µM | TGI [10]: 24.9 µM | GI50 [11]: 2.58 µM | TGI [11]: 16.4 µM | GI50 [59]: 2.16 µM | TGI [59]: 27.9 µM | GI50 [12]: 2.81 µM | TGI [12]: 16.4 µM | GI50 [13]: 2.47 µM | TGI [13]: > 100 µM | GI50 [14]: 1.98 µM | TGI [14]: 27 µM | GI50 [15]: 1.61 µM | TGI [15]: 15.8 µM | GI50 [16]: 2.04 µM | TGI [16]: 18.3 µM | GI50 [17]: 3.04 µM | TGI [17]: 19.9 µM | GI50 [18]: 4.56 µM | TGI [18]: > 100 µM | GI50 [19]: 3.56 µM | TGI [19]: 27 µM | GI50 [20]: 4.4 µM | TGI [20]: 23 µM | GI50 [21]: 2.17 µM | TGI [21]: 12.1 µM | GI50 [22]: 3.13 µM | TGI [22]: 23.7 µM | GI50 [23]: 3.02 µM | TGI [23]: 26.9 µM | GI50 [24]: 9.11 µM | TGI [24]: 24.2 µM | GI50 [25]: 3.11 µM | TGI [25]: 20.5 µM | GI50 [26]: 1.23 µM | TGI [26]: 10 µM | GI50 [27]: 4.33 µM | TGI [27]: 19.7 µM | GI50 [28]: 0.718 µM | TGI [28]: 11.8 µM | GI50 [29]: 3.41 µM | TGI [29]: 14.4 µM | GI50 [30]: 1.22 µM | TGI [30]: 11.5 µM | GI50 [31]: 9.01 µM | TGI [31]: 28.5 µM | GI50 [32]: 3.03 µM | TGI [32]: 25.4 µM | GI50 [33]: 4.05 µM | TGI [33]: 22.3 µM | GI50 [34]: 1.27 µM | TGI [34]: 9.58 µM | GI50 [35]: 2.41 µM | TGI [35]: 18.4 µM | GI50 [36]: 2.97 µM | TGI [36]: > 100 µM | GI50 [37]: 0.231 µM | TGI [37]: 2.26 µM | GI50 [38]: 3.98 µM | TGI [38]: 55.9 µM | GI50 [39]: 3.43 µM | TGI [39]: 33.1 µM | GI50 [40]: 1.48 µM | TGI [40]: 6.5 µM | GI50 [42]: 1.78 µM | TGI [42]: 8.41 µM | GI50 [43]: 0.371 µM | TGI [43]: 4.02 µM | GI50 [44]: 0.623 µM | TGI [44]: 5.25 µM | GI50 [45]: 3.13 µM | TGI [45]: 54.1 µM | GI50 [46]: 1.28 µM | TGI [46]: 4.86 µM | GI50 [47]: 1.04 µM | TGI [47]: 15.5 µM | GI50 [48]: 2.42 µM | TGI [48]: 21.3 µM | GI50 [49]: 0.885 µM | TGI [49]: 13.8 µM | GI50 [50]: 7.02 µM | TGI [50]: 21.9 µM | GI50 [51]: 3.28 µM | TGI [51]: 20.5 µM | GI50 [52]: 2.49 µM | TGI [52]: 16.3 µM | GI50 [53]: 3.48 µM | TGI [53]: 19.8 µM | GI50 [54]: 6.17 µM | TGI [54]: 26.9 µM | GI50 [55]: 3.53 µM | TGI [55]: 29.6 µM | GI50 [56]: 2.62 µM | TGI [56]: 12.4 µM | GI50 [57]: 1.74 µM | TGI [57]: 11.3 µM | GI50 [58]: 3.65 µM | TGI [58]: 20.3 µM
